A melting point compilation (Tetko et al.; mined from patent text by program, amines drawn as free bases though some values may be those of a salt)

melting point | Compound
124 to 126 °C | CNc1ccc(NC(=O)OC2CCCC2)cc1C(Cc1ccc(C(=O)OC)cc1OC)=NOC(C)=O
195 to 198 °C | CCOC(=O)c1cc(-c2ccc(Cl)cc2)c(Cl)nc1N
158 to 160 °C | CCN(CC)C(=O)Oc1c(N2CCCC2)c(=O)n(-c2ccccc2)c2ncccc12
143 to 145 °C | CC(C)(C)c1cc(-c2nn(Cc3ccc([N+](=O)[O-])cc3)c3ncccc23)cc(C(C)(C)C)c1O
158 to 159 °C | O=S(=O)(Nc1cc(Cl)cc(Cl)c1)c1cc(Br)ccc1O
85 to 86 °C | CCOCCCn1cnc(-c2ccc(F)cc2)c1-c1ccncc1
200 to 201 °C | Cc1c(C#N)c(-c2ccc(C#N)cc2)c(C)n1Cc1cnc(Cl)c(C(O)C(F)(F)F)c1 (stereo not drawn)
155 to 156 °C | CC(=O)Nc1ccc(-c2ccc(CCCC(=O)O)cc2)cc1Br
156 to 159 °C | O=C1CC2(CCO1)c1ccccc1Oc1ccccc12
246 to 249 °C | CC(=O)Nc1ccc(-c2cccc(C3=NCC(C)(C)c4ccc5c(c43)CC(C)(C)O5)c2)cc1
132 to 138 °C | CC(C)=Nn1c(S)nnc1-n1cccn1
69.5 to 70.5 °C | OC(CCCCCOc1cccc(Cl)c1)c1cccc(OCc2ccc3ccccc3n2)c1 (stereo not drawn)
131 °C | Oc1ccc(OCc2ccccc2)c2c1OCCO2
200 °C | Cc1cccc(-c2sc(N)nc2-c2ccnc(-c3ccc(CN4CCCC4)cc3)c2)n1
140 to 141 °C | CN(C)C1CCC(O)(c2ccccc2Cc2ccccc2)CC1 (stereo not drawn)
206 °C | NCC(=O)NCCCCNc1cccc2c1C(=O)c1ccccc1C2=O
172 to 173 °C | O=C(Nc1cccc(C(F)(F)F)c1)N1CCCCc2cc(O)ccc21

melting point | Compound
86 to 91 °C | CCOC(=O)C1C(=O)N(C)c2ccc(Cl)cc2S1(=O)=O (stereo not drawn)
56 °C | CCOC(=O)c1ccc(-c2ccc(OCC(O)CO)c(-c3ccc4c(c3)C(C)(C)CCC4(C)C)c2)cc1 (stereo not drawn)
145 to 147 °C | Cc1sc2c(c1C(=O)c1ccccc1)CCC2C(=O)O (stereo not drawn)
62 to 62.5 °C | CSC(C(=O)O)c1ccco1 (stereo not drawn)
154 to 156 °C | CCOC(=O)C1(C(=O)OCC)CCC2(c3cc(OC)c(OC)cc3CCN2C(=O)CCN(C)C)C(C2c3cc(OC)c(OC)cc3CCN2C(C)=O)C1 (stereo not drawn)
234 to 235 °C | CCONC(=O)c1cc(NC(C)=C2C(=O)OC(=O)C(C(C)=O)=C2O)cc(C(=O)NOCC)c1
142 to 143 °C | CSc1cc(C(F)(F)F)nn1-c1ccc(NC(=O)c2ccncc2F)cc1
124 to 128 °C | Cc1ccc(N=C(Nc2ccc(C)cc2)ON2C(C)(C)CC(OC(=O)c3ccccc3)CC2(C)C)cc1
39 to 42 °C | CCCCCCCCCCCCc1nnn(C(C(=O)O)C(C)C)n1 (stereo not drawn)
115 to 121 °C | COC(=O)c1ccccc1C1NC(=S)C(C)(C(C)C)N1 (stereo not drawn)
132 to 134 °C | COC(=O)c1ccccc1-c1ccc(COc2cc(C)nc3cccnc23)cc1
188 to 190 °C | Cc1c(C2CCN(Cc3ccccc3)CC2)n[nH]c1-c1ccc(Cl)cc1
78 °C | COC(=O)c1cc(OC(C)=O)c2cc(Br)ccc2c1C
143 to 144 °C | CCCn1nc2c(N)nc3ccccc3c2c1CCNC(=O)OCC
245 to 248 °C | CS(=O)(=O)N1CCN(c2n[nH]c(-c3ccc(Cl)cc3)c2-c2ccncc2)CC1
107 to 108 °C | O=CC(=Cc1cccc(Cl)c1)C(C=O)=Cc1cccc(Cl)c1
109 to 111 °C | CNC(C)CN1CCc2c(c(=O)oc3cc(OC)ccc23)C1 (stereo not drawn)

Compound | melting point
CCC1(O)CC(=O)OCc2c1cc1n(c2=O)Cc2c-1nc1ccccc1c2CCC(C)C (stereo not drawn) | 263 °C
CN(C)C(=O)C(c1ccccc1)(c1ccccc1)C1CCNC1 (stereo not drawn) | 159 to 160 °C
CCCCCCCCCCc1cc2c(s1)-n1c(C)nnc1CN=C2c1ccccc1C | 61 to 63 °C
Cc1ccccc1C(c1c[nH]cn1)c1ccccc1C | 228 to 231 °C
